The values that follow come from patent US9611251B2, “Substituted piperidine compounds and their use as orexin receptor modulators” (Janssen Pharmaceutica NV, priority 2013, dated 2017).

SMILES strings stand for the structures. Some results are limits rather than exact numbers.

The target in one assay is rat orexin 1 receptor (Rattus norvegicus, UniProt P56718). Briefly: Rat orexin 1 receptor radioligand binding. As to conditions: rat orexin 1 receptor radioligand binding; averages of 2-20 runs; read-out: rOX1 Ki. The method in brief:
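Cell-suspension competition binding used 4 nM final tritiated thiazolyl-pyrrolidinyl-methanone radioligand in PBS, ≤0.1% DMSO, with 10 µM almorexant defining nonspecific binding. Filter-bound radioactivity was counted in triplicate. IC50 came from one-site competition fits and was converted to Ki using the predetermined Kd.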

In another assay the target is human orexin 2 receptor (Homo sapiens (Human), UniProt O43614). Briefly: Human orexin 2 receptor radioligand binding ([3H]-EMPA). As to conditions: averages of 2-20 runs, read-out: hOX2 Ki. The method in brief: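 Competition binding using homogenized HEK293 cells stably expressing human orexin 2 receptor, [3H]-EMPA at 2 nM final and ≤0.1% DMSO; nonspecific binding set with 10 μM almorexant. Filter-bound radioactivity counted by scintillation; one-site competition IC50 converted to Ki using pre-determined Kd, compounds run in triplicate.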

The target of another assay is human orexin 1 receptor (Homo sapiens, UniProt O43613). In words: Human orexin 1 receptor radioligand binding. Conditions: human orexin 1 receptor radioligand binding; averages of 2-20 runs; read-out: hOX1 Ki.

Sequence of human orexin 2 receptor (O43614 whole entry): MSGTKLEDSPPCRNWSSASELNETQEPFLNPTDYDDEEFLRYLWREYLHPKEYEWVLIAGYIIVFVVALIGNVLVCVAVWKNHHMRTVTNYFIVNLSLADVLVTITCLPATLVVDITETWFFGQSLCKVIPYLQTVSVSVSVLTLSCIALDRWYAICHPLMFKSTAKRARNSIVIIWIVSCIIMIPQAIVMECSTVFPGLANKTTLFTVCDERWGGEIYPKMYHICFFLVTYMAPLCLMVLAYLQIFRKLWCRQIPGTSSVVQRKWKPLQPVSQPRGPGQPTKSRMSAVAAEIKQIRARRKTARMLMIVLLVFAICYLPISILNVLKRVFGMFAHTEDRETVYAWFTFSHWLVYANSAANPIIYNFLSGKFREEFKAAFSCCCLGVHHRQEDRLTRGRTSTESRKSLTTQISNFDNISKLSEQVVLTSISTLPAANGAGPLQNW

On to `C[C@H]1[C@H](Oc2ccc(Cl)cn2)CCCN1C(=O)c1ncccc1-c1ncccn1` [Example 218, ((2S,3R)-3-((5-chloropyridin-2-yl)oxy)-2-methylpiperidin-1-yl)(3-(pyrimidin-2-yl)pyridin-2-yl)methanone], for which the inhibitory constant (Ki) on rat orexin 1 receptor turned out to be 26 nM; on human orexin 2 receptor, 495 nM; at human orexin 1 receptor, 29 nM.
For `Cc1cccc(C(=O)N2CCC[C@@H](Oc3ccc(C(F)(F)F)cn3)[C@@H]2C)c1-n1nccn1` [Example 152, (3-methyl-2-(2H-1,2,3-triazol-2-yl)phenyl)((2S,3R)-2-methyl-3-((5-(trifluoromethyl)pyridin-2-yl)oxy)piperidin-1-yl)methanone], the Ki on rat orexin 1 receptor is 28 nM; on human orexin 2 receptor, 412 nM; at human orexin 1 receptor, 20 nM.
With `Cc1cnc(-n2nccn2)c(C(=O)N2CCC[C@@H](Oc3cnc(C(F)(F)F)cn3)[C@@H]2C)c1` [Example 177, (5-methyl-2-(2H-1,2,3-triazol-2-yl)pyridin-3-yl)((2S,3R)-2-methyl-3-((5-(trifluoromethyl)pyrazin-2-yl)oxy)piperidin-1-yl)methanone], the Ki at rat orexin 1 receptor is 238 nM; at human orexin 2 receptor, above 10000 nM; on human orexin 1 receptor, 166 nM.
On to `C[C@H]1[C@H](Oc2ncc(C(F)(F)F)cc2F)CCCN1C(=O)c1ccccc1-c1ncccn1` [Example 154, ((2S,3R)-3-((3-fluoro-5-(trifluoromethyl)pyridin-2-yl)oxy)-2-methylpiperidin-1-yl)(2-(pyrimidin-2-yl)phenyl)methanone], for which the Ki on rat orexin 1 receptor amounted to 46 nM; on human orexin 2 receptor, 526 nM; on human orexin 1 receptor it was 22 nM.
In the case of `C[C@H]1[C@H](Oc2cnc(C(F)(F)F)cn2)CCCN1C(=O)c1cccc(F)c1-n1nccn1` [Example 125, (3-fluoro-2-(2H-1,2,3-triazol-2-yl)phenyl)((2S,3R)-2-methyl-3-((5-(trifluoromethyl)pyrazin-2-yl)oxy)piperidin-1-yl)methanone], the figures for the Ki on rat orexin 1 receptor, at human orexin 2 receptor and at human orexin 1 receptor were 117 nM, 2500 nM and 138 nM, respectively.
In the case of `C[C@H]1[C@H](Nc2ccc(C(F)(F)F)cn2)CCCN1C(=O)c1ncccc1-c1ncccn1` (relative stereo) [Example 265, ((2S*,3R*)-2-methyl-3-((5-(trifluoromethyl)pyridin-2-yl)amino)piperidin-1-yl)(3-(pyrimidin-2-yl)pyridin-2-yl)methanone], the Ki on rat orexin 1 receptor was 16 nM; at human orexin 2 receptor, 293 nM; at human orexin 1 receptor, 24 nM.
Take `Cc1cccc(C(=O)N2CCC[C@@H](Oc3ncc(C(F)(F)F)cn3)[C@@H]2C)c1-c1ncc(F)cn1` [Example 170, (2-(5-fluoropyrimidin-2-yl)-3-methylphenyl)((2S,3R)-2-methyl-3-((5-(trifluoromethyl)pyrimidin-2-yl)oxy)piperidin-1-yl)methanone]: the Ki at rat orexin 1 receptor is 48 nM; on human orexin 2 receptor, 2800 nM; at human orexin 1 receptor, 49 nM.
With `C[C@H]1[C@H](Oc2cnc(C(F)(F)F)cn2)CCCN1C(=O)c1ccccc1-n1nccn1` [Example 106, (2-(2H-1,2,3-triazol-2-yl)phenyl)((2S,3R)-2-methyl-3-((5-(trifluoromethyl)pyrazin-2-yl)oxy)piperidin-1-yl)methanone], the values for the Ki at rat orexin 1 receptor, on human orexin 2 receptor and on human orexin 1 receptor were 44 nM, 912 nM and 45 nM, respectively.
In the case of `Cc1cccc(C(=O)N2CCC[C@@H](Oc3ncc(C(F)(F)F)cc3F)[C@@H]2C)c1-n1nccn1` [Example 158, ((2S,3R)-3-((3-fluoro-5-(trifluoromethyl)pyridin-2-yl)oxy)-2-methylpiperidin-1-yl)(3-methyl-2-(2H-1,2,3-triazol-2-yl)phenyl)methanone], the Ki on rat orexin 1 receptor came out at 36 nM; on human orexin 2 receptor it was 575 nM; on human orexin 1 receptor it was 34 nM.
Taken in the same sequence, the figures for `Cc1cccc(C(=O)N2CCC[C@@H](Oc3ncc(C(F)(F)F)cn3)[C@@H]2C)c1-c1ncccn1` [Example 167, (3-methyl-2-(pyrimidin-2-yl)phenyl)((2S,3R)-2-methyl-3-((5-(trifluoromethyl)pyrimidin-2-yl)oxy)piperidin-1-yl)methanone] were 30 nM, 1800 nM and 28 nM.
For `Cc1cnc(C(=O)N2CCC[C@@H](Nc3ccc(C(F)(F)F)cn3)[C@@H]2C)c(-n2nccn2)c1` [Example 26, ((2S,3R)-2-methyl-3-((5-(trifluoromethyl)pyridin-2-yl)amino)piperidin-1-yl)(5-methyl-3-(2H-1,2,3-triazol-2-yl)pyridin-2-yl)methanone], the figures for the Ki at rat orexin 1 receptor, on human orexin 2 receptor and on human orexin 1 receptor were 12 nM, 2370 nM and 16 nM, respectively.
In the case of `COc1ccc(C(=O)N2CCC[C@@H](Nc3ccc(C(F)(F)F)cn3)[C@@H]2C)c(-n2nccn2)c1` [Example 97, (4-methoxy-2-(2H-1,2,3-triazol-2-yl)phenyl)((2S,3R)-2-methyl-3-((5-(trifluoromethyl)pyridin-2-yl)amino)piperidin-1-yl)methanone], the Ki turned out to be 33 nM at rat orexin 1 receptor, 4900 nM on human orexin 2 receptor and 34 nM on human orexin 1 receptor.
In the case of `C[C@H]1[C@H](Nc2ccc(C(F)(F)F)cn2)CCCN1C(=O)c1ccc(F)cc1-n1nccn1` (relative stereo) [Example 192, (4-fluoro-2-(2H-1,2,3-triazol-2-yl)phenyl)((2S*,3R*)-2-methyl-3-((5-(trifluoromethyl)pyridin-2-yl)amino)piperidin-1-yl)methanone], the results for the Ki at rat orexin 1 receptor, at human orexin 2 receptor and on human orexin 1 receptor were 27 nM, 543 nM and 25 nM, respectively.
The corresponding values for `COc1ccc(-n2nccn2)c(C(=O)N2CCC[C@@H](Nc3ncc(C(F)(F)F)cn3)[C@@H]2C)c1` [Example 89, (5-methoxy-2-(2H-1,2,3-triazol-2-yl)phenyl)((2S,3R)-2-methyl-3-((5-(trifluoromethyl)pyrimidin-2-yl)amino)piperidin-1-yl)methanone] are 11 nM, 422 nM and 9 nM.
Consider `Cc1ccc(-n2nccn2)c(C(=O)N2CCC[C@@H](Oc3cnc(C(F)(F)F)cn3)[C@@H]2C)n1` [Example 107, ((2S,3R)-2-methyl-3-((5-(trifluoromethyl)pyrazin-2-yl)oxy)piperidin-1-yl)(6-methyl-3-(2H-1,2,3-triazol-2-yl)pyridin-2-yl)methanone], for which the Ki stood at 34 nM at rat orexin 1 receptor, 2300 nM at human orexin 2 receptor and 38 nM on human orexin 1 receptor.
`Cc1cnc(C(=O)N2CCC[C@@H](Nc3ccc(Cl)cn3)[C@@H]2C)c(-c2ncco2)c1` [Example 77, ((2S,3R)-3-((5-chloropyridin-2-yl)amino)-2-methylpiperidin-1-yl)(5-methyl-3-(oxazol-2-yl)pyridin-2-yl)methanone]: the Ki was determined as 41 nM on rat orexin 1 receptor, 4230 nM at human orexin 2 receptor and 60 nM at human orexin 1 receptor.
As for `C[C@H]1[C@H](Oc2ncc(C(F)(F)F)cc2F)CCCN1C(=O)c1cc(F)ccc1-c1ncccn1` [Example 221, (5-fluoro-2-(pyrimidin-2-yl)phenyl)((2S,3R)-3-((3-fluoro-5-(trifluoromethyl)pyridin-2-yl)oxy)-2-methylpiperidin-1-yl)methanone], the Ki on rat orexin 1 receptor came to 32 nM; at human orexin 2 receptor, 533 nM; at human orexin 1 receptor, 44 nM.
Regarding `C[C@H]1[C@H](Oc2ccc(C(F)(F)F)cn2)CCCN1C(=O)c1ccccc1-n1nccn1` [Example 110, (2-(2H-1,2,3-triazol-2-yl)phenyl)((2S,3R)-2-methyl-3-((5-(trifluoromethyl)pyridin-2-yl)oxy)piperidin-1-yl)methanone], the Ki stood at 12 nM at rat orexin 1 receptor, 246 nM at human orexin 2 receptor and 11 nM at human orexin 1 receptor.
Take `C[C@H]1[C@H](Oc2ccc(C(F)(F)F)cn2)CCCN1C(=O)c1ccc(F)cc1-c1ncccn1` [Example 139, (4-fluoro-2-(pyrimidin-2-yl)phenyl)((2S,3R)-2-methyl-3-((5-(trifluoromethyl)pyridin-2-yl)oxy)piperidin-1-yl)methanone]: the Ki at rat orexin 1 receptor amounted to 51 nM; at human orexin 2 receptor it was 1200 nM; on human orexin 1 receptor it was 51 nM.
In the case of `CCOc1ccc(C)nc1C(=O)N1CCC[C@@H](Nc2ncc(C(F)(F)F)cn2)[C@@H]1C` (relative stereo) [Example 199, (3-ethoxy-6-methylpyridin-2-yl)((2S*,3R*)-2-methyl-3-((5-(trifluoromethyl)pyrimidin-2-yl)amino)piperidin-1-yl)methanone], the inhibition constant Ki on rat orexin 1 receptor was found to be 154 nM; on human orexin 2 receptor, 2400 nM; on human orexin 1 receptor, 206 nM.
Taken in the same sequence, the figures for `C[C@H]1[C@H](Nc2ccc(C(F)(F)F)cn2)CCCN1C(=O)c1ccc(F)cc1-c1ncccn1` (relative stereo) [Example 191, (4-fluoro-2-(pyrimidin-2-yl)phenyl)((2S*,3R*)-2-methyl-3-((5-(trifluoromethyl)pyridin-2-yl)amino)piperidin-1-yl)methanone] were 12 nM, 421 nM and 9 nM.
Consider `Cc1cnc(-c2ncccn2)c(C(=O)N2CCC[C@@H](Oc3ccc(C(F)(F)F)cn3)[C@@H]2C)c1` [Example 211, (5-methyl-2-(pyrimidin-2-yl)pyridin-3-yl)((2S,3R)-2-methyl-3-((5-(trifluoromethyl)pyridin-2-yl)oxy)piperidin-1-yl)methanone], for which the values for the Ki at rat orexin 1 receptor, at human orexin 2 receptor and at human orexin 1 receptor were 120 nM, above 10000 nM and 124 nM, respectively.
